Tests used:
Type in all cases: in vivo, mice
Fos expression in the LC [1] = assay: Fos expression in the LC during the RFS model; conditions: dp6FNE 3 mg/kg i.p. 15 min prior to the 5th swim, with prazosin 0.2 mg/kg; swum animals, versus vehicle
Description: (§1) In the RFS study, mice were subjected to 4 daily 15 min swims as described above and were injected i.p. with either vehicle or dp6FNE (3 mg/kg) 15 min prior to the 5th swim. In the TST study, animals were injected similarly before a 6 min test. […] The animals were anesthetized and perfused for immuno-histochemistry 70 min after the start of the swim or tail suspension. Brains were processed as described previously for double-label immunofluorescent Fos/tyrosine hydroxylase staining of all sections through the LC and for single-label Fos staining through the full PVH (Stone et al., Brain Res (2009) 1291: 21-31). […] In the tail suspended mice the analogous reductions were 53.5±7.2% (LC) and 36.7±3.1 (PVH). […] These findings thus indicate that a dose of […] dp6FNE that has preferential inhibitory effects on the LC during depression exists.

Fos expression in the LC [2] = assay: Fos expression in the LC in the tail suspension test; conditions: dp6FNE 3 mg/kg i.p. before a 6 min tail suspension test, with prazosin 0.2 mg/kg
Description: as §1

[3] = test system: endotoxin-induced inhibition of the female urine sniffing test (FUST); assay: Endotoxin (LPS)-induced anhedonia, female urine sniffing test (FUST)
Description: To determine if dp6FNE would also be active in an anhedonia-based model of depression, the compound was tested for its ability to reverse an endotoxin-induced inhibition of the female urine sniffing test (FUST), a non-nutritive hedonic behavior, whose impairment by stress was recently validated as a model of depression in this species (Malkesman et al., Biol Psychiatry (2010) 67: 864-871) A non-nutritive rewarding behavior was used because dp6FNE, like most other acutely administered antidepressants, has initial anorexic effects that inhibit the consumption of sweet solutions (Currie et al., Brain Res (1998) 800: 62-68). […] The repeated forced swim (RFS) model could not be used for this test because it is not a severe enough stress to reliably produce anhedonia in this species (Stone et al., Pharmacol Biochem Behav (2008b) 91: 190-195).
Male mice were trained to sniff estrous urine (verified by vaginal smears) presented on cotton swabs in the home cage over 3 d and were matched on sniffing duration (proximity to the swab in a 3 min test) into control and depression groups. These groups were administered i.p. control solution (H2O) or lipopolysaccharide (LPS), 400 μg/kg, respectively, and were left undisturbed for 24 h, which is necessary for the initial sickness behavior, but not the anhedonia, to subside (Frenois et al., Psychoneuroendocrinology (2007) 32: 516-531).

[4] = test system: locomotor behavior in an open field; assay: Open field locomotor behavior after ivt. 6FNE or i.p. dp6FNE versus amphetamine; conditions: 6FNE ivt. or dp6FNE i.p.
Description: 6FNE and dp6FNe were tested for their effects on motor activity by measuring locomotor behavior in an open field after either ivt. (6FNE) or i.p. injection (dp6fNE) in mice. These mice were compared to animals that were either non handled or received either a vehicle ivt injection or an i.p. injection of the stimulant, amphetamine (5 mg/kg). The results are shown in FIG. 6 and in (Stone, Lin Y, Sarfraz Y, and Quartermain D, 2011). […] Furthermore, the increase in activity after 6FNE was minor in comparison with the bona fide stimulant, amphetamine which produced a 10 fold increase. The small increase over the vehicle group therefore appears to be the result of a reduction of the stress caused by the handling and restraint for the ivt. injection which is in agreement with the reduced activation of brain stress circuits discussed above. This interpretation was supported by an examination of the time in the center or risky area of the field spent by the various groups. […] A slight reduction in motor behavior at the low doses (0.1-0.3 mg/kg) were, however, observed.

CC(C)(C)C(=O)Oc1cc(F)c(C(O)CN)cc1OC(=O)C(C)(C)C (stereo not drawn) [dp6FNE, dipivalyl-6-fluoronorepinephrine]
reduction in gene expression (Fos) in the LC (Fos expression in the LC [1]): 33.6±6.8 | reduction in gene expression (Fos) in the LC (Fos expression in the LC [2]): 53.5±7.2% | change of time sniffing, Con vs LPS ([3]; dp6FNE (1 mg/kg) i.p. with prazosin 0.2 mg/kg, 15 min before test, 24 h after LPS 400 μg/kg): +4.6±1.4% | effect on the FUST in the absence of endotoxin ([3]; dp6FNE i.p. with prazosin 0.2 mg/kg, control (H2O) animals): did not significantly affect the FUST | effect on motor activity in the open field [4]: did not produce any stimulation of motor behavior | time in the center of the field [4]: significant increase in the time in the center of the field

Reference: patent US9265774B2, “Methods, compounds and pharmaceutical compositions for treating anxiety and mood disorders” (New York University, priority 2011, dated 2016)
